The source of these data is ChEMBL document CHEMBL2151016, “Synthesis and in vitro antiproliferative activity of new 11-aminoalkylamino-substituted chromeno[2,3-b]indoles” (Eur J Med Chem, 2012).

As usually defined, the IC50 is the concentration that gives 50% inhibition.

Where only a bound is given, the exact number is not on record here.

The subject of experiment [1] is L6. Nature of the experiment: Cytotoxicity against rat L6 cells. Format: cell-based.
In experiment [2] the test system is MV4-11. Nature of the experiment: Cytotoxicity against human MV4-11 cells after 72 hrs by MTT assay. The settings on record: MV4-11, 72 h. (Tetrazolium assays rely on reduction of a dye to a coloured formazan, in cell work by metabolically active cells.)
The test system of experiment [3] is BALB/3T3. As to the kind of experiment: Cytotoxicity against mouse BALB/3T3 cells after 72 hrs by SRB assay. To be noted: BALB/3T3, 72 h. A general note: Sulforhodamine B stains cellular protein and so reports cell mass.
For experiment [4], the system named is A549. As to the kind of experiment: Cytotoxicity against human A549 cells after 72 hrs by SRB assay. To be noted: A549, 72 h.
For experiment [5], the system named is BALB/3T3. Nature of the experiment: Ratio of IC50 for mouse BALB/3T3 cells to IC50 for human A549 cells.
The subject of experiment [6] is HCT-116. As to the kind of experiment: Cytotoxicity against human HCT116 cells after 72 hrs by SRB assay. The settings on record: HCT-116, 72 h.
For experiment [7], the system named is A549. As to the kind of experiment: Ratio of IC50 for human A549 cells to IC50 for human HCT116 cells. In kind it is functional.
Experiment [8] concerns BALB/3T3. As to the kind of experiment: Ratio of IC50 for mouse BALB/3T3 cells to IC50 for human HCT116 cells.

In turn, `COc1ccc2oc3nc4ccccc4c-3c(NCCCNC(=O)Nc3ccccc3)c2c1` gave an IC50 in experiment [1] of 169 µM.
The compound `COc1ccc2c(c1)c(NCCCNC(=O)Nc1ccccc1)c1c3ccccc3nc-1n2C` returned an IC50 in experiment [1] of 2.7 µM.
As for `NCCCNc1c2c3ccccc3nc-2oc2ccccc12`, the IC50 in experiment [2] was determined as 1.02 µM; in experiment [3], 13.4 µM; in experiment [4], 4.26 µM; in experiment [6], 5.7 µM. In experiment [5], the “Ratio IC50” value was 2.
In the case of `NCCCCNc1c2c3ccccc3nc-2oc2ccccc12`, the IC50 in experiment [2] was determined as 0.76 µM; in experiment [3], 12.1 µM; in experiment [4] it was 3.9 µM; in experiment [6], 7.2 µM.
As to `OCCCNc1c2c3ccccc3nc-2oc2ccccc12`, the IC50 in experiment [2] was found to be 7.66 µM.
Still for that read-out and setting: next, `CCN(CC)CCCC(C)Nc1c2c3ccccc3nc-2oc2ccccc12` (configuration not stated): 6.02 µM.
The same measure, in the same setting: in the case of `c1ccc2c3c(N4CCOCC4)c4ccccc4oc-3nc2c1` it was 9.2 µM.
As for `NCCCNc1c2c3ccccc3nc-2oc2ccc(Cl)cc12`, the IC50 worked out at 0.86 µM in experiment [2], 10.1 µM in experiment [3], 5.59 µM in experiment [4] and 3.28 µM in experiment [6]. For the same compound, the “Ratio IC50” value in experiment [5] is listed as 2.
Consider `NCCCCNc1c2c3ccccc3nc-2oc2ccc(Cl)cc12`, for which the IC50 stood at 0.76 µM in experiment [2], 11 µM in experiment [3], 5.56 µM in experiment [4] and 2.03 µM in experiment [6]. For the same compound, the “Ratio IC50” value in experiment [7] is listed as 3; in experiment [5], 2.
For `OCCCNc1c2c3ccccc3nc-2oc2ccc(Cl)cc12`, the IC50 in experiment [2] was more than 30.6 µM.
In turn, `CCN(CC)CCCC(C)Nc1c2c3ccccc3nc-2oc2ccc(Cl)cc12` (configuration not stated) came in with an IC50 in experiment [2] of 7 µM.
Consider `Clc1ccc2oc3nc4ccccc4c-3c(N3CCOCC3)c2c1`, for which the IC50 in experiment [2] is more than 29.5 µM.
As for `Clc1ccc2oc3nc4ccccc4c-3c(NCCc3c[nH]c4ccccc34)c2c1`, the IC50 in experiment [2] is 7.57 µM.
The same measure, in the same setting: next, `C=CCNc1c2c3ccccc3nc-2oc2ccc(Cl)cc12`: more than 32.4 µM.
For the compound `CN1CCCN(c2c3c4ccccc4nc-3oc3ccc(Cl)cc23)CC1`, the IC50 turned out to be 0.63 µM in experiment [2], 16.8 µM in experiment [3], 10.8 µM in experiment [4] and 9.68 µM in experiment [6].
`NCCCNc1c2c3ccccc3nc-2oc2ccc(Br)cc12`: the 50% inhibitory concentration (IC50) in experiment [2] came out at 0.97 µM; in experiment [3], 8.94 µM; in experiment [4], 6.19 µM; in experiment [6], 4.19 µM.
Taken in the same sequence, the figures for `NCCCCNc1c2c3ccccc3nc-2oc2ccc(Br)cc12` were 0.72 µM, 9.55 µM, 7.36 µM and 6.74 µM.
For `OCCCNc1c2c3ccccc3nc-2oc2ccc(Br)cc12`, in experiment [2], the IC50 is more than 26.9 µM.
The same measure, in the same setting: in the case of `CCN(CC)CCCC(C)Nc1c2c3ccccc3nc-2oc2ccc(Br)cc12` (configuration not stated) it was 4.93 µM.
`Brc1ccc2oc3nc4ccccc4c-3c(N3CCOCC3)c2c1`: 25.3 µM corresponded to half-maximal inhibition in experiment [2] (IC50). This IC50 lies about 5.1-fold higher than the previous one.
Turning to `COc1ccc2oc3nc4ccccc4c-3c(NCCCN)c2c1`, the IC50 came to 0.12 µM in experiment [2], 6.87 µM in experiment [3], 9.29 µM in experiment [4] and 1.93 µM in experiment [6]. In addition, the “Ratio IC50” value in experiment [8] and in experiment [7] was 5 throughout.
`COc1ccc2oc3nc4ccccc4c-3c(NCCCO)c2c1` came in with an IC50 in experiment [2] of 7.26 µM.
In experiment [2], `CCN(CC)CCCC(C)Nc1c2c3ccccc3nc-2oc2ccc(OC)cc12` (configuration not stated) registered an IC50 of 3.45 µM.
As for `COc1ccc2oc3nc4ccccc4c-3c(N3CCOCC3)c2c1`, the IC50 in experiment [2] worked out at 0.38 µM; in experiment [3] it was 8.73 µM; in experiment [4] it was 10.6 µM; in experiment [6], 1.7 µM. Besides, the “Ratio IC50” value in experiment [8] and in experiment [7] was 5 in each case.
`COc1ccc2oc3nc4ccccc4c-3c(NCCc3c[nH]c4ccccc34)c2c1` registered an IC50 in experiment [2] of 3.04 µM.
The same measure, in the same setting: next, `COc1ccc2oc3nc4ccccc4c-3c(Nc3ccccc3)c2c1`: 4.35 µM.
The same measure, in the same setting: in the case of `CS(=O)(=O)NCCCNc1c2c3ccccc3nc-2oc2ccccc12` it was 7.74 µM; in that of `O=S(=O)(NCCCNc1c2c3ccccc3nc-2oc2ccccc12)c1ccccc1`, more than 23.2 µM; in that of `O=S(=O)(NCCCNc1c2c3ccccc3nc-2oc2ccccc12)c1ccc2ccccc2c1`, 2.41 µM.
In the case of `CS(=O)(=O)NCCCNc1c2c3ccccc3nc-2oc2ccc(Br)cc12`, the IC50 in experiment [2] stood at 6.22 µM.
On the same count and under the same terms, in the case of `O=S(=O)(NCCCNc1c2c3ccccc3nc-2oc2ccc(Br)cc12)c1ccccc1` it was more than 19.6 µM.
In experiment [2], `O=S(=O)(NCCCNc1c2c3ccccc3nc-2oc2ccc(Br)cc12)c1ccc2ccccc2c1` displayed a half-inhibitory concentration (IC50) of 5.75 µM.
